From PubChem BioAssay AID248 (DTP/NCI, 2004)
Inconclusive results and toxic doses are left out. No stated cut-off is given here; in the data, active means T/C of 150% or more; inactive means T/C below 125%.

Tested on: L1210 leukemia ip in BDF1 mice, survival T/C
Assay: NCI In Vivo Anticancer Drug Screen. Data for tumor model L1210 Leukemia (intraperitoneal) in B6D2F1 (BDF1) mice
Conditions: endpoint: mean survival time, higher = longer survival
Method in brief: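 Tumor was transplanted into mice, which were then dosed with test compound or vehicle alone. Survival was recorded for each group, and the treated figure was expressed relative to the control figure.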

[1] = dose: 100.0 mg/kg/injection, schedule: Q04DX003 (ip), vehicle: Klucel (hydroxypropylcellulose) (HPC)
[2] = dose: 200.0 mg/kg/injection, schedule: Q04DX003 (ip), vehicle: Klucel (hydroxypropylcellulose) (HPC)
[3] = dose: 400.0 mg/kg/injection, schedule: Q04DX003 (ip), vehicle: Klucel (hydroxypropylcellulose) (HPC)
[4] = dose: 50.0 mg/kg/injection, schedule: Q01DX009 (ip), vehicle: Klucel (hydroxypropylcellulose) (HPC)
[5] = dose: 100.0 mg/kg/injection, schedule: Q01DX009 (ip), vehicle: Klucel (hydroxypropylcellulose) (HPC)
[6] = dose: 100.0 mg/kg/injection, schedule: Q01DX001 (ip), vehicle: carboxymethylcellulose (CMC)
[7] = dose: 400.0 mg/kg/injection, schedule: Q01DX001 (ip), vehicle: carboxymethylcellulose (CMC)
[8] = dose: 100.0 mg/kg/injection, schedule: Q04DX002 (ip), vehicle: saline
[9] = dose: 200.0 mg/kg/injection, schedule: Q04DX002 (ip), vehicle: saline

Measured: T/C

CCC(=O)OC1(c2ccccc2)CCN(CCCC(=O)c2ccccc2)CC1
inactive: dose: 20.0 mg/kg/injection, schedule: Q04DX003 (ip), vehicle: Klucel (hydroxypropylcellulose) (HPC) 111 % of control | dose: 40.0 mg/kg/injection, schedule: Q04DX003 (ip), vehicle: Klucel (hydroxypropylcellulose) (HPC) 96 % of control

CC(=O)OC1(N=NC(C)(C)C)C(C)(C)C(=O)C1(C)C
inactive: [1] 91 % of control | [2] 86 % of control | [3] 91 % of control

Cc1ccc(S(=O)(=O)N(CCCc2c(-c3ccccc3)nc(N)[nH]c2=O)c2ccccc2)cc1
inactive: dose: 100.0 mg/kg/injection, schedule: Q01DX009 (ip), vehicle: gum acacia 101 % of control | dose: 200.0 mg/kg/injection, schedule: Q01DX009 (ip), vehicle: gum acacia 100 % of control | dose: 400.0 mg/kg/injection, schedule: Q01DX009 (ip), vehicle: gum acacia 99 % of control

CN(C)C=O.CN(C)C=O.[Cl][Sn]([Cl])([Cl])[Cl]
inactive: [4] 103 % of control | [5] 93 % of control | [1] 92 % of control | [2] 92 % of control

CCOC=Nc1ccc(-n2cnc3c(Cl)ncnc32)cc1C
inactive: [6] 91 % of control | [7] 98 % of control

CN(C(=O)NCCCl)C1CCC(C(=O)O)CC1 (stereo unspecified)
inactive: dose: 100.0 mg/kg/injection, schedule: Q01DX001 (ip), vehicle: Klucel (hydroxypropylcellulose) (HPC) 92 % of control | dose: 200.0 mg/kg/injection, schedule: Q01DX001 (ip), vehicle: Klucel (hydroxypropylcellulose) (HPC) 88 % of control

CCOC(=O)CN=NNc1ccc(C(=O)OCC)cc1
inactive: dose: 25.0 mg/kg/injection, schedule: Q01DX009 (ip), vehicle: other 95 % of control | dose: 50.0 mg/kg/injection, schedule: Q01DX009 (ip), vehicle: other 96 % of control | dose: 50.0 mg/kg/injection, schedule: Q04DX003 (ip), vehicle: other 105 % of control | dose: 100.0 mg/kg/injection, schedule: Q01DX001 (ip), vehicle: other 98 % of control | dose: 100.0 mg/kg/injection, schedule: Q04DX003 (ip), vehicle: other 104 % of control | dose: 200.0 mg/kg/injection, schedule: Q01DX001 (ip), vehicle: other 95 % of control

CC(C)=CCNc1ncnc2nc[nH]c12
inactive: dose: 5.0 mg/kg/injection, schedule: Q01DX001 (ip), vehicle: saline 107 % of control | dose: 10.0 mg/kg/injection, schedule: Q01DX001 (ip), vehicle: saline 95 % of control | dose: 10.0 mg/kg/injection, schedule: Q01DX009 (ip), vehicle: saline with Tween-80 104 % of control | dose: 20.0 mg/kg/injection, schedule: Q01DX001 (ip), vehicle: saline 101 % of control | dose: 20.0 mg/kg/injection, schedule: Q01DX009 (ip), vehicle: saline with Tween-80 103 % of control | dose: 20.0 mg/kg/injection, schedule: Q04DX003 (ip), vehicle: saline with Tween-80 100 % of control | dose: 40.0 mg/kg/injection, schedule: Q01DX001 (ip), vehicle: saline 101 % of control | dose: 40.0 mg/kg/injection, schedule: Q01DX009 (ip), vehicle: saline with Tween-80 98 % of control

C#CCOC(=O)C1C2CCC(O2)C1C(=O)O (stereo unspecified)
inactive: dose: 1.25 mg/kg/injection, schedule: Q01DX009 (ip), vehicle: saline 100 % of control | dose: 2.5 mg/kg/injection, schedule: Q01DX009 (ip), vehicle: saline 109 % of control

O=C(O)C1(O)CCCCC1
inactive: dose: 100.0 mg/kg/injection, schedule: Q01DX001 (ip), vehicle: saline 104 % of control | dose: 100.0 mg/kg/injection, schedule: Q01DX009 (ip), vehicle: saline 100 % of control | [8] 104 % of control | dose: 100.0 mg/kg/injection, schedule: Q04DX003 (ip), vehicle: saline 98 % of control | dose: 200.0 mg/kg/injection, schedule: Q01DX001 (ip), vehicle: saline 110 % of control | [9] 93 % of control | dose: 200.0 mg/kg/injection, schedule: Q04DX003 (ip), vehicle: saline 113 % of control | dose: 400.0 mg/kg/injection, schedule: Q01DX001 (ip), vehicle: saline 110 % of control | dose: 400.0 mg/kg/injection, schedule: Q04DX003 (ip), vehicle: saline 101 % of control

CC1Cc2c(n[nH]c2CC2CC(=O)NC(=O)C2)C(C)C1 (stereo unspecified)
inactive: [6] 100 % of control | dose: 200.0 mg/kg/injection, schedule: Q01DX001 (ip), vehicle: carboxymethylcellulose (CMC) 97 % of control | [7] 101 % of control

CCCCCCCCCCCCc1ccc(/C(C)=N/NC(=O)c2ccc[n+](C)c2)cc1
inactive: dose: 100.0 mg/kg/injection, schedule: Q01DX001 (ip), vehicle: saline with Tween-80 93 % of control

Cc1ccc(S(=O)(=O)N/N=C\C(O)C(O)C(O)CO)cc1 (stereo unspecified)
inactive: dose: 100.0 mg/kg/injection, schedule: Q04DX002 (ip), vehicle: saline with Tween-80 97 % of control | dose: 200.0 mg/kg/injection, schedule: Q04DX002 (ip), vehicle: saline with Tween-80 94 % of control | dose: 400.0 mg/kg/injection, schedule: Q04DX002 (ip), vehicle: saline with Tween-80 97 % of control

O=C1C=CC(=O)N1c1ccc([N+](=O)[O-])cc1[N+](=O)[O-]
inactive: dose: 12.5 mg/kg/injection, schedule: Q01DX009 (ip), vehicle: Klucel (hydroxypropylcellulose) (HPC) 98 % of control | dose: 25.0 mg/kg/injection, schedule: Q01DX009 (ip), vehicle: Klucel (hydroxypropylcellulose) (HPC) 103 % of control | [4] 103 % of control | [5] 105 % of control

O=C(O)c1cc(Br)cc(Cl)c1Cl
inactive: dose: 100.0 mg/kg/injection, schedule: Q04DX002 (ip), vehicle: Klucel (hydroxypropylcellulose) (HPC) 100 % of control | dose: 200.0 mg/kg/injection, schedule: Q04DX002 (ip), vehicle: Klucel (hydroxypropylcellulose) (HPC) 103 % of control

O=C(O)CC1(C(=O)O)CC2CCC1C2 (stereo unspecified)
inactive: dose: 100.0 mg/kg/injection, schedule: Q01DX009 (ip), vehicle: carboxymethylcellulose (CMC) 91 % of control | dose: 100.0 mg/kg/injection, schedule: Q04DX003 (ip), vehicle: carboxymethylcellulose (CMC) 103 % of control | dose: 200.0 mg/kg/injection, schedule: Q01DX009 (ip), vehicle: carboxymethylcellulose (CMC) 94 % of control | dose: 200.0 mg/kg/injection, schedule: Q04DX003 (ip), vehicle: carboxymethylcellulose (CMC) 103 % of control | dose: 400.0 mg/kg/injection, schedule: Q01DX009 (ip), vehicle: carboxymethylcellulose (CMC) 92 % of control | dose: 400.0 mg/kg/injection, schedule: Q04DX003 (ip), vehicle: carboxymethylcellulose (CMC) 100 % of control

O=C(CCCc1ccc(N(CCCl)CCCl)cc1)OCc1ccccc1
inactive: [8] 121 % of control | [9] 108 % of control | dose: 400.0 mg/kg/injection, schedule: Q04DX002 (ip), vehicle: saline 121 % of control

O=C1c2ccccc2-c2cc(Br)c(NC(=O)C(F)(F)F)cc21
inactive: dose: 100.0 mg/kg/injection, schedule: Q04DX003 (ip), vehicle: saline with Tween-80 108 % of control | dose: 200.0 mg/kg/injection, schedule: Q04DX003 (ip), vehicle: saline with Tween-80 105 % of control | dose: 400.0 mg/kg/injection, schedule: Q04DX003 (ip), vehicle: saline with Tween-80 100 % of control

CCOC(=O)N1CCC2C(CC3CC2C3(C)C)N1C(=O)OCC (stereo unspecified)
inactive: [4] 103 % of control | [5] 101 % of control | [1] 97 % of control | dose: 200.0 mg/kg/injection, schedule: Q01DX009 (ip), vehicle: Klucel (hydroxypropylcellulose) (HPC) 101 % of control | [2] 101 % of control | [3] 99 % of control

O=C(Nc1nc2ccccc2[nH]1)c1ccc(C(=O)Nc2nc3ccccc3[nH]2)cc1
inactive: dose: 15.0 mg/kg/injection, schedule: Q01DX Z (ip), vehicle: other 100 % of control | dose: 30.0 mg/kg/injection, schedule: Q01DX Z (ip), vehicle: other 100 % of control | dose: 60.0 mg/kg/injection, schedule: Q01DX Z (ip), vehicle: other 100 % of control | dose: 120.0 mg/kg/injection, schedule: Q01DX Z (ip), vehicle: other 97 % of control | dose: 180.0 mg/kg/injection, schedule: Q01DX Z (ip), vehicle: carboxymethylcellulose (CMC) 102 % of control | dose: 270.0 mg/kg/injection, schedule: Q01DX Z (ip), vehicle: carboxymethylcellulose (CMC) 96 % of control

NCC(=O)Nc1ccc(Cl)cc1C(=O)c1ccc[nH]1
inactive: dose: 100.0 mg/kg/injection, schedule: Q01DX009 (ip), vehicle: saline with Tween-80 93 % of control | dose: 200.0 mg/kg/injection, schedule: Q01DX009 (ip), vehicle: saline with Tween-80 87 % of control | dose: 400.0 mg/kg/injection, schedule: Q01DX009 (ip), vehicle: saline with Tween-80 90 % of control
